# Test results: patent publication US6723718B2, “Substituted α, β-anellated butyrolactones” (Bayer Aktiengesellschaft, priority 1998, dated 2004)
# Assays:
# [1] = system: subdural haematoma in the rat (SDH); assay: Subdural haematoma in the rat (SDH); format: in vivo; details: 0.01 mg/kg/h intravenous continuous infusion directly up to 4 hours post-trauma
# Description: Subdural Haematoma in the Rat (SDH)
# Under anaesthesia, the animal's own blood is injected subdurally on one side. An infarct is formed under the haematoma. Substance administration is earned out according to different time schemes and via different administration routes (i.v., i.p.).
# The determination of the infarct size is carried out as described in the model of permanent focal ischaemia in the rat (MCA-O).
# [2] = system: permanent focal cerebral ischaemia in the rat (MCA-O); assay: Permanent focal cerebral ischaemia in the rat (MCA-O); format: in vivo; details: 0.01 mg/kg/h intravenous continuous infusion directly up to 4 hours after the occlusion, infarct size determined after 7 days
# Description: Permanent Focal Cerebral Ischaemia in the Rat (MCA-O)
# Under isoflurane anaesthesia, the middle cerebral artery is exposed on one side and the latter and its side branches are irreversibly sealed by means of electrocoagulation. As a result of the intervention a cerebral infarct is formed. During the operation, the body temperature of the animal is kept at 37° C. After wound closure and wearing off of the anaesthesia, the animals are again released into their cage. Substance administration is carried out according to different time schemes and via different administration routes (i.v., i.p.) after occlusion. The infarct size is determined after 7 days. To do this, the brain is removed, worked up histologically and the infarct volume is determined with the aid of a computer-assisted analysis system.
smiles,measurement,setting,value
C=C1C[C@@H]2COC(=O)[C@]2(Cc2ccc3ccccc3c2)C1 [Example 35],% reduction of infarct volume,[1],51%
same,% reduction of infarct volume,[2],38%
